The target in the assay is CCR8 (Homo sapiens, UniProt P51685). The assay is described as follows: Tango assay (Tango-CCR8-Gal4-CHO-K1 cells, CCL1-stimulated, ONE-Glo luminescence). Conditions: Tango Assay IC50, Inhibition of CCR8 Tango cell in vitro.

Where a name gives a salt, the structure may show the parent alone.

Chain of CCR8 (P51685 whole entry, the tested form may be a part): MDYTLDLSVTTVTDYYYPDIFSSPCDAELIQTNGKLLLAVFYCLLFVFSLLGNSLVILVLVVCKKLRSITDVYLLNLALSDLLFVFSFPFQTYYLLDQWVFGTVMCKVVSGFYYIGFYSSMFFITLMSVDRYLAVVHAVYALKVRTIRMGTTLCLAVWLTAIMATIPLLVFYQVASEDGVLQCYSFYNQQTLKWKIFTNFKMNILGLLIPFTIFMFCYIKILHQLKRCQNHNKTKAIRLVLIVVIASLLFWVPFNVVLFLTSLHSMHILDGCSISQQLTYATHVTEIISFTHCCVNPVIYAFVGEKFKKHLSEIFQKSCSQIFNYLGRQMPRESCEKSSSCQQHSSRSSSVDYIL

The molecule `Cc1ccccc1C(=O)Nc1ccc(S(=O)(=O)N[C@H](C)C2CCN(C)CC2)c(C)c1Cl` [Compound 308, (R)-N-(2-chloro-3-methyl-4-(N-(1-(1-methylpiperidin-4-yl)ethyl)sulfamoyl)phenyl)-2-methylbenzamide] returned an IC50 of more than 100000 nM. On to `Cc1cc(S(=O)(=O)N[C@H](C)C2CCNCC2)ccc1NC(=O)C12CCC(CC1)CC2` [Compound 309, hydrochloride], for which the IC50 came out at 10 nM.

In the case of `Cc1cc(S(=O)(=O)N[C@H](C)C2CCNCC2)ccc1NC(=O)c1cccc2c1CCC2` [Compound 310, (R)-N-(2-methyl-4-(N-(1-(piperidin-4-yl)ethyl)sulfamoyl)phenyl)-2,3-dihydro-1H-indene-4-carboxamide hydrochloride], the IC50 is 5 nM. Molecule `Cc1ccccc1C(=O)Nc1cc(F)c(S(=O)(=O)NC2CCNCC2)cc1Cl` [Compound 311, N-(2-chloro-5-fluoro-4-(N-(piperidin-4-yl)sulfamoyl)phenyl)-2-methylbenzamide hydrochloride] had an IC50 of more than 100000 nM. For the molecule `CC(=O)N1CCC(NS(=O)(=O)c2cc(Cl)c(NC(=O)c3ccccc3C)cc2F)CC1` [Compound 312, N-(4-(N-(1-acetylpiperidin-4-yl)sulfamoyl)-2-chloro-5-fluorophenyl)-2-methylbenzamide], the half-inhibitory concentration (IC50) was 301 nM. In turn, `Cc1cc(S(=O)(=O)N[C@H](C)C2CCNCC2)ccc1NC1(c2ccccc2)COC1` [Compound 313, (R)-3-methyl-4-((3-phenyloxetan-3-yl)amino)-N-(1-(piperidin-4-yl)ethyl)benzene-sulfonamide] returned an IC50 of 224 nM. Regarding `COc1cc(NC(=O)c2ccccc2C)c(C)cc1S(=O)(=O)N[C@H](C)C1CCNCC1` [Compound 314, (R)-N-(5-methoxy-2-methyl-4-(N-(1-(piperidin-4-yl)ethyl)sulfamoyl)phen-yl)-2-methylbenzamide hydrochloride], the IC50 stood at 17 nM.

As usually defined, the IC50 is the midpoint of a concentration-inhibition curve. A lower IC50 goes with inhibition by little substance.

The values above are taken from patent US12552753B2, “Methods and compositions for targeting Tregs using CCR8 inhibitors” (Nanjing Immunophage Biomedical Co., Ltd., priority 2020, dated 2026).
